Laboratory results published in publication PMC12136037, “Type II kinase inhibitors that target Parkinson’s disease–associated LRRK2” (Science Advances, 2025).
Several values for one entry are separate records, joined by “and”; a condition that tells them apart may be missing. Identical values can stand only once.

Tests used:
[1] = biological target: T1, LRRK2^RCKW (Homo sapiens, UniProt Q5S007); test: Biochemical LRRK2 activity assay (PhosphoSense, AssayQuant SOX peptide AQT0615); settings: for IC50: LRRK2^RCKW kinase activity, in vitro; for normalized response (LRRK2 activity): normalized to 0% (no kinase) and 100% (no inhibitor) control, two singlicate columns per compound
T1 construct: LRRK2 R1327 to E2527; His6-Z-tag (TEV cleavable) (N, cleaved yes); host or cells: Sf9 insect cells (baculovirus)
T1 sequence (Q5S007 1327-2527): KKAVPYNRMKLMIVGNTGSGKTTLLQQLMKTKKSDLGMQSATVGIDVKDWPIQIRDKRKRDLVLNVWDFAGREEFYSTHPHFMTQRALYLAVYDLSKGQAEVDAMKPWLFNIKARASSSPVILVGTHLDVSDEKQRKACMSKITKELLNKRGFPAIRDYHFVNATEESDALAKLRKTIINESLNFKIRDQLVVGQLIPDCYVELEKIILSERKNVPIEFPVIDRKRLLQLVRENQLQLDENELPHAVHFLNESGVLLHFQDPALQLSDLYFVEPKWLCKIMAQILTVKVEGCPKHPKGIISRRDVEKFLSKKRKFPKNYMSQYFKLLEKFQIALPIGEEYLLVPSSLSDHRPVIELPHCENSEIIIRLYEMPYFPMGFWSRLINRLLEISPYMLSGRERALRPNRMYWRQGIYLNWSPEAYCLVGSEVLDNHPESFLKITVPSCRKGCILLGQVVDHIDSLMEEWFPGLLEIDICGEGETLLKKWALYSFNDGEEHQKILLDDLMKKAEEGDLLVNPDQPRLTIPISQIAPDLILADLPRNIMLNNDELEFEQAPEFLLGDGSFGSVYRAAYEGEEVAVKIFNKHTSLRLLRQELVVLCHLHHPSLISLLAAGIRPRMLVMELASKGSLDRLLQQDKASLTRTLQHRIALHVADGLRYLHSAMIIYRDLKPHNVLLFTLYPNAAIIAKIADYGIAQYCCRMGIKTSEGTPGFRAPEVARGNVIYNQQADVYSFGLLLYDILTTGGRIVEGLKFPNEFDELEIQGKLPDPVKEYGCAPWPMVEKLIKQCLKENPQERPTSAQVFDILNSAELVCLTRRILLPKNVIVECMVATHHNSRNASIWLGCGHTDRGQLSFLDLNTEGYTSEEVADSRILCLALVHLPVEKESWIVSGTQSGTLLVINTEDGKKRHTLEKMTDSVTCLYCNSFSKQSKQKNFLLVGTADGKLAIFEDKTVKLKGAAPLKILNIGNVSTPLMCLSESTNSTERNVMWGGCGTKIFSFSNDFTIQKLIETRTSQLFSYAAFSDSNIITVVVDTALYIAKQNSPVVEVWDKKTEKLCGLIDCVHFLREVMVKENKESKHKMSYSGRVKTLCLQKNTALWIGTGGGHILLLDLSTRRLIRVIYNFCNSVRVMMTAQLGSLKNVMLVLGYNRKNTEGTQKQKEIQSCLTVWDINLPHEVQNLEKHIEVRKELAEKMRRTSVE
In short: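 Controls lacked protein and compound (0%) or compound only (100%). IC50 derived by nonlinear regression of normalized response versus log[inhibitor].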

[2] = biological target: T2, ~100 representative kinases (Homo sapiens, UniProt Q13627); test: DSF 100 kinase selectivity screen; format: binding; settings: Protein DYRK1A; average of three replicates;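 note: compound tested at 20 µM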
T2 construct: Recombinant protein kinase domains with a concentration of 2 μM
Method: (§1) Recombinant protein kinase domains with a concentration of 2 μM were mixed with a 20 μM compound solution in dimethyl sulfoxide (DMSO), 20 mM Hepes (pH 7.5), and 500 mM NaCl. SYPRO Orange (5000×, Invitrogen) was added as a fluorescence probe (1μl/ml). Subsequently, temperature-dependent protein unfolding profiles were measured using the QuantStudio 5 realtime PCR machine (Thermo Fisher Scientific, Waltham, MA, USA). […] The temperature was raised with a step rate of 3°C/min. […] Differences in melting temperature are given as ΔTm values in degrees Celsius. […]

[3] = biological target: T3, ~100 representative kinases (Homo sapiens, UniProt Q9Y6E0); test: DSF 100 kinase selectivity screen; format: binding; settings: protein MST3; average of three replicates;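 note: compound tested at 20 µM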
T3 construct: Recombinant protein kinase domains with a concentration of 2 μM
Method: as §1

[4] = biological target: T4, ~100 representative kinases (Homo sapiens, UniProt O94804); test: DSF 100 kinase selectivity screen; format: binding; settings: Protein STK10; DSF; average of three replicates;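 note: compound tested at 20 µM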
T4 construct: Recombinant protein kinase domains with a concentration of 2 μM
Method: as §1

[5] = biological target: T5, ~100 representative kinases (Homo sapiens, UniProt O15264); test: DSF 100 kinase selectivity screen; format: binding; settings: protein MAPK13; average of three replicates;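 note: compound tested at 20 µM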
T5 construct: Recombinant protein kinase domains with a concentration of 2 μM
T5 sequence (O15264 1-365): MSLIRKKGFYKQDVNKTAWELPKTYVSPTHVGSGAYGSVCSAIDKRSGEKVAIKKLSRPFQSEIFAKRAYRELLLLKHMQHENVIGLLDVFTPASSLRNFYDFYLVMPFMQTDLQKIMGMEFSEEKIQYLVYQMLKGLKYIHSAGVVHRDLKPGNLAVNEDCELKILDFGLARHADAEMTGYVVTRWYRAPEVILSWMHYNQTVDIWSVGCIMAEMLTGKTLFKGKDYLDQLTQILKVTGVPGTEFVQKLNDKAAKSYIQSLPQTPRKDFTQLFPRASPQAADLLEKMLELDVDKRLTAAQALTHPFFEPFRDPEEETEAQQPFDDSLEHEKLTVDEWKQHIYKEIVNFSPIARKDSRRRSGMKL
Method: as §1

T3 sequence (Q9Y6E0 whole entry, the tested form may be a part): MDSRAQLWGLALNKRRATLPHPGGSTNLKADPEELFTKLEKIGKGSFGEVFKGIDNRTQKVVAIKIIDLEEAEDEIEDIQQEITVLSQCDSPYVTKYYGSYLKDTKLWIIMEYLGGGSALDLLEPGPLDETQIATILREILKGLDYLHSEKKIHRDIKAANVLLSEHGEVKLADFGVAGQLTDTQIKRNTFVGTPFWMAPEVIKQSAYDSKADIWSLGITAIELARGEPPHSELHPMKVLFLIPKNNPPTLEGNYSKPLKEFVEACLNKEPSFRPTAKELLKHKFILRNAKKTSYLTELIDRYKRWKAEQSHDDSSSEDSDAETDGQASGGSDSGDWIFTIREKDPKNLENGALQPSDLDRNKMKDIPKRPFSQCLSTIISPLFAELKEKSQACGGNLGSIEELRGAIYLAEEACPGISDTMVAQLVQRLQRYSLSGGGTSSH
T4 sequence (O94804 whole entry, the tested form may be a part): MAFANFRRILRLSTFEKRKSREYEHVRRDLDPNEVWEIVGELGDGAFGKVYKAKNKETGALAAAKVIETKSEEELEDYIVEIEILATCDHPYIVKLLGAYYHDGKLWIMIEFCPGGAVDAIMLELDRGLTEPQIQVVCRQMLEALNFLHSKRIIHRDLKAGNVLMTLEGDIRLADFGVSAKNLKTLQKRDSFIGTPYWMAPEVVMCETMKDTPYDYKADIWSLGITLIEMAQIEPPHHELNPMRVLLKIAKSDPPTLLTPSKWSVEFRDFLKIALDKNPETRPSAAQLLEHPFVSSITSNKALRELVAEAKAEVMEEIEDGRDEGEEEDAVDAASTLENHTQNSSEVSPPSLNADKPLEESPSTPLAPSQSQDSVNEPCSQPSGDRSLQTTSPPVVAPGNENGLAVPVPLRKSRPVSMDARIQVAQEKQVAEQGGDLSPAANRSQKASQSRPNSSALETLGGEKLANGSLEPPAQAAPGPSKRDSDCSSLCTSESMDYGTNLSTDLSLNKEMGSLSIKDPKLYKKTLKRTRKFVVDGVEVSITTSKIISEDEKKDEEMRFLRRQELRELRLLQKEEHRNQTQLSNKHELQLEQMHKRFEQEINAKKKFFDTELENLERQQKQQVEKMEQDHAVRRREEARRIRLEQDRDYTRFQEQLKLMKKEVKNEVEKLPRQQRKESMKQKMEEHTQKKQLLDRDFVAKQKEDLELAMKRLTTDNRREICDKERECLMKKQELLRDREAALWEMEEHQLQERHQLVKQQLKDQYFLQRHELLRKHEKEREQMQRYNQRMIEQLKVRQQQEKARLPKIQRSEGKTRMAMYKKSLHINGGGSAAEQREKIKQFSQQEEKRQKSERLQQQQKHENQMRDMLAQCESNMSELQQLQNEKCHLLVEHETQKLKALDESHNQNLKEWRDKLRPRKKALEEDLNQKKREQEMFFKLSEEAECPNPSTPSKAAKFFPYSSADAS

Row | SMILES | IC50 [1] [nM] | normalized response (LRRK2 activity) ([1]; log[inhibitor(mol)] -4.82391) | normalized response (LRRK2 activity) ([1]; log[inhibitor(mol)] -6.30103) | normalized response (LRRK2 activity) ([1]; log[inhibitor(mol)] -6.90309) | normalized response (LRRK2 activity) ([1]; log[inhibitor(mol)] -7.30103) | normalized response (LRRK2 activity) ([1]; log[inhibitor(mol)] -7.60206) | normalized response (LRRK2 activity) ([1]; log[inhibitor(mol)] -8.09691) | normalized response (LRRK2 activity) ([1]; log[inhibitor(mol)] -8.61979) | normalized response (LRRK2 activity) ([1]; log[inhibitor(mol)] -9.09691) | normalized response (LRRK2 activity) ([1]; log[inhibitor(mol)] -9.39794) | dTm [2] [K] | dTm [3] [K] | dTm [4] [K] | dTm [5] [K] | normalized response (LRRK2 activity) ([1]; log[inhibitor(mol)] -5.12494) | normalized response (LRRK2 activity) ([1]; log[inhibitor(mol)] -5.60206)
1 | O=C(Nc1cccc(-c2c[nH]c3ncnc(N4CCOCC4)c23)c1)c1cccn(-c2ccc(F)cc2)c1=O [Compound 4] | 167 ± 4 | 9.714% and 10.3287% | 8.354% and 15.3302% | 58.3207% and 57.3774% | 76.6433% and 88.9388% | 88.7743% and 91.0393% | 93.6662% and 93.1068% | 96.9841% and 102.616% | 103.96% and 100.631% | 95.5418% and 116.272% | 2.17 | 3.28 | 11.47 | 12.71 |  | 
2 | Cc1cc(NC(=O)C2(C(=O)Nc3ccc(F)cc3)CC2)cc(-c2c[nH]c3ncnc(N4CCOCC4)c23)c1 [Compound 6] | 2150 ± 76 | 17.1176% and 19.6941% | 71.6605% and 77.9071% | 94.0943% and 97.1643% | 97.7557% and 95.1358% | 95.6902% and 98.0188% | 96.4251% and 96.973% | 102.476% and 68.784% | 101.485% and 101.404% | 101.487% and 73.6695% | -0.88 | -0.29 | 11.03 | 7.75 | 21.5574% and 22.3836% | 47.7852% and 45.6806%
3 | O=C(Nc1cccc(-c2c[nH]c3ncnc(N4CCOCC4)c23)c1)C1(C(=O)Nc2cccc3c2CCC3)CC1 [Compound 11] | 989 ± 32 | 10.5992% and 8.534% | 46.8199% and 60.7415% | 90.6286% and 91.37% | 100.861% and 98.8124% | 104.989% and 102.561% | 99.7669% and 103.043% | 100.861% and 99.0776% | 103.172% and 100.678% | 101.258% and 104.313% | 0.32 | -2.04 | 10.54 | 6.18 | 11.3407% and 2.1893% | 26.743% and 30.013%
4 | O=C(Nc1ccccc1)C1(C(=O)Nc2cccc(-c3c[nH]c4ncnc(N5CCOCC5)c34)c2)CC1 [Compound 12] | 350 ± 25 | 0.1647% and -9.791% | 35.45% and 38.9177% | 76.566% and 79.9356% | 91.6032% and 94.9482% | 99.2139% and 97.704% | 99.3121% and 101.951% | 104.222% and 110.035% | 103.486% and 106.278% | 106.585% and 109.47% | 4.34 | 3.58 | 11.85 | 7.89 | -4.574% and -1.793% | 1.386% and 6.849%
5 | O=C(Nc1ccc(Cl)cc1)C1(C(=O)Nc2cccc(-c3c[nH]c4ncnc(N5CCOCC5)c34)c2)CC1 [Compound 13] | 717 ± 14 |  | 62.4187% and 38.0646% | 95.7707% and 92.6957% | 101.552% and 99.1095% | 102.657% and 105.64% | 106.745% and 99.576% | 101.35% and 101.951% | 104.075% and 108.101% | 110.679% and 104.597% | 8.77 | 4.95 | 14.64 | 11.74 |  | 15.0853% and 13.379%
